Measurements reported in patent US20220169632A1, “METHODS AND MATERIALS FOR INCREASING OR MAINTAINING NICOTINAMIDE MONONUCLEOTIDE ADENYLYL TRANSFERASE-2 (NMNAT2) POLYPEPTIDE LEVELS” (University of Pittsburgh - Of the Commonwealth System of …, priority 2019, published 2022).

These compounds were tested on NMNAT2 (assay: NMNAT2-Hibit nano-luciferase activity in stably transfected U87MG cells, various concentrations, 24 hours). Conditions: U87MG cells stably transfected with NMNAT2-Hibit luc plasmid.
Format: cell-based
Protocol: Selected compounds were tested in vitro. U87MG cells were stably transfected with NMNAT2-Hibit luc plasmid. Cells were treated with a test compound at various concentrations for 24 hours. Cells were then collected and assayed for nano-luciferase activity.

Row | Compound | E: compound efficacy for NMNAT2 activation (concentration giving >25% increase in NMNAT2 luciferase activity)
1 | Cc1ccc(CNC(=O)c2ccc3c(c2)c(C)c(C)n3Cc2cccc(F)c2)o1 [BC20109] | ++ (“++” >25% increase in NMNAT2 luciferase activity at >1 μM ≤25 μM.)
2 | CCCCN(CC)Cc1ccc(CNC(=O)CCc2c(C(F)F)n(Cc3cc(C)ccc3C)c3ccccc23)o1 [BC20406] | +++ (“+++” >25% increase in NMNAT2 luciferase activity at ≤1 μM.)
3 | O=C(CCCc1cn(Cc2ccccc2F)c2ccccc12)NCc1ccncc1 [BC20133] | ++ (“++” >25% increase in NMNAT2 luciferase activity at >1 μM ≤25 μM.)
4 | Cc1c(C)n(Cc2cccc(F)c2)c2ccc(C(=O)NCc3cccnc3)cc12 [BC20265] | ++ (“++” >25% increase in NMNAT2 luciferase activity at >1 μM ≤25 μM.)
5 | Cc1cccc(CNC(=O)[C@H]2C[C@@H]2c2c(C)n(Cc3cc(C)ccc3C)c3ccccc23)c1 (racemic) [BC20303] | + (“+” >25% increase in NMNAT2 luciferase activity at >25 μM.)
6 | Cc1c(C)n(Cc2cccc(F)c2)c2ccc(C(=O)NCc3cccc(F)c3)cc12 [BC20112] | +++ (“+++” >25% increase in NMNAT2 luciferase activity at ≤1 μM.)
7 | Cc1ccc(Cn2cc([C@H]3C[C@@H]3C(=O)NCc3ccco3)c3ccccc32)cc1 (racemic) [BC20293] | ++ (“++” >25% increase in NMNAT2 luciferase activity at >1 μM ≤25 μM.)
8 | Cc1ccc(C)c(Cn2c3c(c4ccccc42)CN(C(=O)NCC2CCCO2)CC3)c1 (centres unmarked) [BC20252] | + (“+” >25% increase in NMNAT2 luciferase activity at >25 μM.)
9 | O=C1c2cccc3c2c(cn3Cc2cccc(F)c2)CCN1Cc1ccccc1F [BC20274] | + (“+” >25% increase in NMNAT2 luciferase activity at >25 μM.)
10 | COC(=O)c1ccc2c(c1)c(C)c(C)n2Cc1ccccc1C [BC20305] | + (“+” >25% increase in NMNAT2 luciferase activity at >25 μM.)
11 | COc1cccc(CNC(=O)[C@H]2C[C@@H]2c2cn(Cc3cc(C)ccc3C)c3ccccc23)c1 (racemic) [BC20350] | + (“+” >25% increase in NMNAT2 luciferase activity at >25 μM.)
12 | Cc1ccccc1Cn1c(C)c(C)c2cc(C(=O)O)ccc21 [BC20306] | + (“+” >25% increase in NMNAT2 luciferase activity at >25 μM.)
13 | O=C(NCc1ccco1)C1CCCc2c1c1ccccc1n2Cc1cccc(F)c1 (centres unmarked) [BC20368] | ++ (“++” >25% increase in NMNAT2 luciferase activity at >1 μM ≤25 μM.)
14 | Cc1c(C)n(Cc2ccccc2F)c2ccc(C(=O)NCc3ccco3)cc12 [BC20100] | ++ (“++” >25% increase in NMNAT2 luciferase activity at >1 μM ≤25 μM.)
15 | O=C(CCCc1cn(Cc2ccccc2F)c2ccccc12)NCc1ccccc1F [BC20210] | + (“+” >25% increase in NMNAT2 luciferase activity at >25 μM.)
16 | Cc1cccc(Cn2cc(CCCC(=O)NCc3ccco3)c3ccccc32)c1 [BC20163] | +++ (“+++” >25% increase in NMNAT2 luciferase activity at ≤1 μM.)
17 | Cc1ccc(Cn2cc(C3CCN(CCc4cccc(C)c4)C(=O)C3)c3ccccc32)cc1 (centres unmarked) [BC20268] | + (“+” >25% increase in NMNAT2 luciferase activity at >25 μM.)
18 | Cc1cccc(Cn2cc(CCCC(=O)NCc3cccc(F)c3)c3ccccc32)c1 [BC20166] | ++ (“++” >25% increase in NMNAT2 luciferase activity at >1 μM ≤25 μM.)
19 | Cc1ccc(C)c(Cn2cc([C@H]3C[C@@H]3C(=O)N(CCN(C)C)Cc3ccco3)c3ccccc32)c1 (racemic) [BC20364] | +++ (“+++” >25% increase in NMNAT2 luciferase activity at ≤1 μM.)
20 | COc1ccc(CNC(=O)N2CCc3c(c4ccccc4n3CC(=O)NCc3ccco3)C2)cc1 [BC20330] | ++ (“++” >25% increase in NMNAT2 luciferase activity at >1 μM ≤25 μM.)
21 | Cc1ccccc1Cn1cc(CCCC(=O)NC(C)Cc2ccco2)c2ccccc21 (centres unmarked) [BC20159] | ++ (“++” >25% increase in NMNAT2 luciferase activity at >1 μM ≤25 μM.)
22 | Cc1ccc(Cn2cc(C3=CC(=O)NCC3)c3ccccc32)cc1 [BC20191] | ++ (“++” >25% increase in NMNAT2 luciferase activity at >1 μM ≤25 μM.)

Row | Compound | E: compound efficacy for NMNAT2 activation (concentration giving >25% increase in NMNAT2 luciferase activity)
23 | Cc1cccc(CNC(=O)Cn2cc(C(=O)c3ccc(Cl)cc3)c3ccccc32)c1 [BC20179] | ++ (“++” >25% increase in NMNAT2 luciferase activity at >1 μM ≤25 μM.)
24 | COc1cccc(CNC(=O)C2CCc3c(c4ccccc4n3Cc3cc(C)ccc3C)C2)c1 (centres unmarked) [BC20188] | ++ (“++” >25% increase in NMNAT2 luciferase activity at >1 μM ≤25 μM.)
25 | Cc1ccc(C)c(Cn2cc([C@H]3C[C@@H]3C(=O)NCCc3ccccc3)c3ccccc32)c1 (racemic) [BC20360] | ++ (“++” >25% increase in NMNAT2 luciferase activity at >1 μM ≤25 μM.)
26 | Cc1ccc(CNC(=O)CCCc2cn(Cc3cccc(F)c3)c3ccccc23)o1 [BC20136] | ++ (“++” >25% increase in NMNAT2 luciferase activity at >1 μM ≤25 μM.)
27 | Cc1cccc(CN2CCc3cn(Cc4cccc(F)c4)c4cccc(c34)C2=O)c1 [BC20276] | + (“+” >25% increase in NMNAT2 luciferase activity at >25 μM.)
28 | O=C1NCCc2cn(Cc3cccc(F)c3)c3cccc1c23 [BC20315] | + (“+” >25% increase in NMNAT2 luciferase activity at >25 μM.)
29 | Cc1ccc(Cn2cc([C@H]3C[C@@H]3C(=O)NCc3cccnc3)c3ccccc32)cc1 (racemic) [BC20301] | + (“+” >25% increase in NMNAT2 luciferase activity at >25 μM.)
30 | Cc1ccc(Cn2cc(C3CCN(Cc4ccncc4)C(=O)C3)c3ccccc32)cc1 (centres unmarked) [BC20267] | ++ (“++” >25% increase in NMNAT2 luciferase activity at >1 μM ≤25 μM.)
31 | Cc1c(C)n(Cc2ccccc2F)c2ccc(C(=O)N3CCN(C(=O)c4ccco4)CC3)cc12 [BC20107] | ++ (“++” >25% increase in NMNAT2 luciferase activity at >1 μM ≤25 μM.)
32 | O=C(Cn1c2c(c3ccccc31)CC(C(=O)NCCc1ccccc1)CC2)NCc1ccco1 (centres unmarked) [BC20262] | ++ (“++” >25% increase in NMNAT2 luciferase activity at >1 μM ≤25 μM.)
33 | O=C(CCCc1cn(Cc2ccccc2F)c2ccccc12)NCc1cccnc1 [BC20132] | ++ (“++” >25% increase in NMNAT2 luciferase activity at >1 μM ≤25 μM.)
34 | Cc1ccc(C)c(Cn2c3c(c4ccccc42)CC(C(=O)NCc2ccc(C)o2)CC3)c1 (centres unmarked) [BC20183] | + (“+” >25% increase in NMNAT2 luciferase activity at >25 μM.)
35 | Cc1ccc(C)c(Cn2c(C(F)F)c(CCC(=O)NCc3ccco3)c3ccccc32)c1 [BC20354] | + (“+” >25% increase in NMNAT2 luciferase activity at >25 μM.)
36 | Cc1c(C)n(Cc2ccccc2F)c2ccc(C(=O)NCc3ccccc3F)cc12 [BC20103] | +++ (“+++” >25% increase in NMNAT2 luciferase activity at ≤1 μM.)
37 | COc1ccccc1CNC(=O)C1CCc2c(c3ccccc3n2Cc2cc(C)ccc2C)C1 (centres unmarked) [BC20187] | + (“+” >25% increase in NMNAT2 luciferase activity at >25 μM.)
38 | Cc1ccc(C)c(Cn2c(C(F)F)c(CCC(=O)NCC3CCCO3)c3ccccc32)c1 (centres unmarked) [BC20392] | + (“+” >25% increase in NMNAT2 luciferase activity at >25 μM.)
39 | Cc1cccc(Cn2cc(CCCC(=O)NCc3ccccc3C)c3ccccc32)c1 [BC20167] | +++ (“+++” >25% increase in NMNAT2 luciferase activity at ≤1 μM.)
40 | O=C(CCCc1cn(Cc2cccc(F)c2)c2ccccc12)NCc1cccnc1 [BC20147] | ++ (“++” >25% increase in NMNAT2 luciferase activity at >1 μM ≤25 μM.)
41 | O=C(CCCc1cn(Cc2ccccc2F)c2ccccc12)NCCc1ccccc1 [BC20131] | ++ (“++” >25% increase in NMNAT2 luciferase activity at >1 μM ≤25 μM.)
42 | Cc1ccc(Cn2cc(C3CCN(Cc4ccccc4C)C(=O)C3)c3ccccc32)cc1 (centres unmarked) [BC20232] | + (“+” >25% increase in NMNAT2 luciferase activity at >25 μM.)
43 | Cc1cccc(CN2CCc3cn(Cc4cc(C)ccc4C)c4cccc(c34)C2=O)c1 [BC20261] | + (“+” >25% increase in NMNAT2 luciferase activity at >25 μM.)
44 | O=C(Cn1cc2c3c(cccc31)C(=O)N(Cc1cccc(F)c1)CC2)NCc1cccc(F)c1 [BC20355] | ++ (“++” >25% increase in NMNAT2 luciferase activity at >1 μM ≤25 μM.)
